In patent US20090275594A1, “3-HYDRAZONE PIPERAZINYL RIFAMYCIN DERIVATIVES USEFUL AS ANTIMICROBIAL AGENTS” (priority 2008, published 2009):
Converted amounts (≈) assume the structure as drawn.

Key:
Type in all cases: cell-based
Conditions in all cases: cation adjusted Mueller-Hinton broth, 35° C., 16-20 hours
[1] = system: Enterococcus faecium OC 3312 vancomycin-resistant; assay: In vitro antibacterial activity, microdilution broth MIC (NCCLS M7-A4), strain A
Method: (§1) Minimum inhibitory concentration (MIC) is an indicator of in vitro antibacterial activity. […] The in vitro antimicrobial activity of representative compounds of the present invention was determined by the microdilution broth method following the test method from the National Committee for Clinical Laboratory Standards (NCCLS). This method is described in the NCCLS Document M7-A4, Vol. 17, No. 2, “Methods for Dilution Antimicrobial Susceptibility Test for Bacteria that Grow Aerobically—Fourth Edition”, which is incorporated herein by reference.
(§2) In this method two-fold serial dilutions of drug in cation adjusted Mueller-Hinton broth were added to wells in microdilution trays. The test organisms were prepared by adjusting the turbidity of actively growing broth cultures so that the final concentration of test organism after it is added to the wells was approximately 5×10^4 CFU/well. Following inoculation of the microdilution trays, the trays were incubated at 35° C. for 16-20 hours and then read. The amount of growth in the wells containing the test compound was compared with the amount of growth in the growth-control wells (no test compound) used in each tray.

[2] = system: Methicillin-resistant Staphylococcus aureus OC 3726 COL; assay: In vitro antibacterial activity, microdilution broth MIC (NCCLS M7-A4), strain C
Method: as §1, §2

[3] = system: Staphylococcus aureus ATCC 29213; assay: In vitro antibacterial activity, microdilution broth MIC (NCCLS M7-A4), strain B
Method: as §1, §2

[4] = system: Staphylococcus aureus OC4172; assay: In vitro antibacterial activity, microdilution broth MIC (NCCLS M7-A4), strain D
Method: as §1, §2

Structure (SMILES)	MIC (μg/mL) A Strain [1]	MIC (μg/mL) C Strain [2]	MIC (μg/mL) B Strain [3]	MIC (μg/mL) D Strain [4]
COC1C=COC2(C)Oc3c(C)c(O)c4c(O)c(c(C=NN5CCN(Cc6cc(CO)no6)CC5)c(O)c4c3C2=O)NC(=O)C(C)=CC=CC(C)C(O)C(C)C(O)C(C)C(OC(C)=O)C1C (stereo not drawn) [Compound 11]	0.25 µg/mL (≈ 0.272 µM)	≦0.03 μg/mL	0.06 µg/mL (≈ 0.0652 µM)	≦0.03 μg/mL
COC1C=COC2(C)Oc3c(C)c(O)c4c(O)c(c(C=NN5CCN(Cc6cc(-c7ccc(Cl)cc7Cl)no6)CC5)c(O)c4c3C2=O)NC(=O)C(C)=CC=CC(C)C(O)C(C)C(O)C(C)C(OC(C)=O)C1C (stereo not drawn) [Compound 4]	1 µg/mL (≈ 0.966 µM)	0.5 µg/mL (≈ 0.483 µM)	1 µg/mL (≈ 0.966 µM)	1 µg/mL (≈ 0.966 µM)
COC1C=COC2(C)Oc3c(C)c(O)c4c(O)c(c(C=NN5CCN(Cc6cc(-c7ccc(Cl)cc7)no6)CC5)c(O)c4c3C2=O)NC(=O)C(C)=CC=CC(C)C(O)C(C)C(O)C(C)C(OC(C)=O)C1C (stereo not drawn) [Compound 2]	1 µg/mL (≈ 0.999 µM)	0.5 µg/mL (≈ 0.5 µM)	0.5 µg/mL (≈ 0.5 µM)	0.5 µg/mL (≈ 0.5 µM)
COc1ccc(-c2cc(CN3CCN(N=Cc4c5c(O)c6c(O)c(C)c7c(c6c4O)C(=O)C(C)(OC=CC(OC)C(C)C(OC(C)=O)C(C)C(O)C(C)C(O)C(C)C=CC=C(C)C(=O)N5)O7)CC3)on2)cc1 (stereo not drawn) [Compound 9]	0.25 µg/mL (≈ 0.251 µM)	0.12 µg/mL (≈ 0.12 µM)	0.25 µg/mL (≈ 0.251 µM)	0.12 µg/mL (≈ 0.12 µM)
COC1C=COC2(C)Oc3c(C)c(O)c4c(O)c(c(C=NN5CCN(CCCc6cc(-c7ccccc7)no6)CC5)c(O)c4c3C2=O)NC(=O)C(C)=CC=CC(C)C(O)C(C)C(O)C(C)C(OC(C)=O)C1C (stereo not drawn) [Compound 27]	0.5 µg/mL (≈ 0.503 µM)	0.5 µg/mL (≈ 0.503 µM)	0.5 µg/mL (≈ 0.503 µM)	0.5 µg/mL (≈ 0.503 µM)
COC1C=COC2(C)Oc3c(C)c(O)c4c(O)c(c(C=NN5CCN(Cc6cc(-c7cccc(Cl)c7)no6)CC5)c(O)c4c3C2=O)NC(=O)C(C)=CC=CC(C)C(O)C(C)C(O)C(C)C(OC(C)=O)C1C (stereo not drawn) [Compound 3]	0.5 µg/mL (≈ 0.5 µM)	0.5 µg/mL (≈ 0.5 µM)	0.5 µg/mL (≈ 0.5 µM)	0.5 µg/mL (≈ 0.5 µM)
COC1C=COC2(C)Oc3c(C)c(O)c4c(O)c(c(C=NN5CCN(Cc6cc(-c7ccncc7)no6)CC5)c(O)c4c3C2=O)NC(=O)C(C)=CC=CC(C)C(O)C(C)C(O)C(C)C(OC(C)=O)C1C (stereo not drawn) [Compound 15]	0.06 µg/mL (≈ 0.062 µM)	≦0.03 μg/mL	≦0.03 μg/mL	≦0.03 μg/mL
COC1C=COC2(C)Oc3c(C)c(O)c4c(O)c(c(C=NN5CCN(Cc6cc(-c7ccc(C)cc7)no6)CC5)c(O)c4c3C2=O)NC(=O)C(C)=CC=CC(C)C(O)C(C)C(O)C(C)C(OC(C)=O)C1C (stereo not drawn) [Compound 8]	0.5 µg/mL (≈ 0.51 µM)	0.5 µg/mL (≈ 0.51 µM)	0.5 µg/mL (≈ 0.51 µM)	0.5 µg/mL (≈ 0.51 µM)
COC1C=COC2(C)Oc3c(C)c(O)c4c(O)c(c(C=NN5CCN(Cc6cc(-c7ccc(OCCCN(C)C)cc7)no6)CC5)c(O)c4c3C2=O)NC(=O)C(C)=CC=CC(C)C(O)C(C)C(O)C(C)C(OC(C)=O)C1C (stereo not drawn) [Compound 17]	0.25 µg/mL (≈ 0.234 µM)	0.12 µg/mL (≈ 0.112 µM)	0.12 µg/mL (≈ 0.112 µM)	0.12 µg/mL (≈ 0.112 µM)
COC1C=COC2(C)Oc3c(C)c(O)c4c(O)c(c(C=NN5CCN(Cc6cc(-c7ccc(NC(C)=O)cc7)no6)CC5)c(O)c4c3C2=O)NC(=O)C(C)=CC=CC(C)C(O)C(C)C(O)C(C)C(OC(C)=O)C1C (stereo not drawn) [Compound 16]	0.12 µg/mL (≈ 0.117 µM)	0.06 µg/mL (≈ 0.0586 µM)	0.06 µg/mL (≈ 0.0586 µM)	≦0.03 μg/mL
COC1C=COC2(C)Oc3c(C)c(O)c4c(O)c(c(C=NN5CCN(Cc6cc(-c7ccc(F)cc7)no6)CC5)c(O)c4c3C2=O)NC(=O)C(C)=CC=CC(C)C(O)C(C)C(O)C(C)C(OC(C)=O)C1C (stereo not drawn) [Compound 5]	0.25 µg/mL (≈ 0.254 µM)	0.12 µg/mL (≈ 0.122 µM)	0.25 µg/mL (≈ 0.254 µM)	0.12 µg/mL (≈ 0.122 µM)
COC1C=COC2(C)Oc3c(C)c(O)c4c(O)c(c(C=NN5CCN(Cc6ccc(-c7ccccc7Cl)o6)CC5)c(O)c4c3C2=O)NC(=O)C(C)=CC=CC(C)C(O)C(C)C(O)C(C)C(OC(C)=O)C1C (stereo not drawn) [Compound 22]	0.5 µg/mL (≈ 0.5 µM)	0.5 µg/mL (≈ 0.5 µM)	0.5 µg/mL (≈ 0.5 µM)	0.25 µg/mL (≈ 0.25 µM)
COC1C=COC2(C)Oc3c(C)c(O)c4c(O)c(c(C=NN5CCN(Cc6ccc(-c7ccc(Cl)cc7)o6)CC5)c(O)c4c3C2=O)NC(=O)C(C)=CC=CC(C)C(O)C(C)C(O)C(C)C(OC(C)=O)C1C (stereo not drawn) [Compound 23]	0.5 µg/mL (≈ 0.5 µM)	0.25 µg/mL (≈ 0.25 µM)	0.25 µg/mL (≈ 0.25 µM)	0.25 µg/mL (≈ 0.25 µM)
COC1C=COC2(C)Oc3c(C)c(O)c4c(O)c(c(C=NN5CCN(Cc6cc(-c7ccccc7)no6)CC5)c(O)c4c3C2=O)NC(=O)C(C)=CC=CC(C)C(O)C(C)C(O)C(C)C(OC(C)=O)C1C (stereo not drawn) [Compound 1]	0.25 µg/mL (≈ 0.259 µM)	0.12 µg/mL (≈ 0.124 µM)	0.12 µg/mL (≈ 0.124 µM)	0.12 µg/mL (≈ 0.124 µM)
COC1C=COC2(C)Oc3c(C)c(O)c4c(O)c(c(C=NN5CCN(Cc6onc(-c7ccc(Cl)cc7)c6C(=O)O)CC5)c(O)c4c3C2=O)NC(=O)C(C)=CC=CC(C)C(O)C(C)C(O)C(C)C(OC(C)=O)C1C (stereo not drawn) [Compound 19]	4 µg/mL (≈ 3.83 µM)	0.5 µg/mL (≈ 0.479 µM)	1 µg/mL (≈ 0.957 µM)	0.5 µg/mL (≈ 0.479 µM)
COC1C=COC2(C)Oc3c(C)c(O)c4c(O)c(c(C=NN5CCN(Cc6ccc(-c7ccc(Cl)cc7)s6)CC5)c(O)c4c3C2=O)NC(=O)C(C)=CC=CC(C)C(O)C(C)C(O)C(C)C(OC(C)=O)C1C (stereo not drawn) [Compound 21]	2 µg/mL (≈ 1.97 µM)	2 µg/mL (≈ 1.97 µM)	2 µg/mL (≈ 1.97 µM)	2 µg/mL (≈ 1.97 µM)
COC(=O)c1c(-c2ccc(Cl)cc2)noc1CN1CCN(N=Cc2c3c(O)c4c(O)c(C)c5c(c4c2O)C(=O)C(C)(OC=CC(OC)C(C)C(OC(C)=O)C(C)C(O)C(C)C(O)C(C)C=CC=C(C)C(=O)N3)O5)CC1 (stereo not drawn) [Compound 18]	1 µg/mL (≈ 0.945 µM)	0.5 µg/mL (≈ 0.472 µM)	1 µg/mL (≈ 0.945 µM)	0.5 µg/mL (≈ 0.472 µM)
COC1C=COC2(C)Oc3c(C)c(O)c4c(O)c(c(C=NN5CCN(Cc6cc(-c7ccc(F)c(F)c7)no6)CC5)c(O)c4c3C2=O)NC(=O)C(C)=CC=CC(C)C(O)C(C)C(O)C(C)C(OC(C)=O)C1C (stereo not drawn) [Compound 6]	0.5 µg/mL (≈ 0.499 µM)	0.25 µg/mL (≈ 0.249 µM)	0.5 µg/mL (≈ 0.499 µM)	0.25 µg/mL (≈ 0.249 µM)
COC1C=COC2(C)Oc3c(C)c(O)c4c(O)c(c(C=NN5CCN(Cc6cn(-c7ccc(Cl)cc7)nn6)CC5)c(O)c4c3C2=O)NC(=O)C(C)=CC=CC(C)C(O)C(C)C(O)C(C)C(OC(C)=O)C1C (stereo not drawn) [Compound 24]	0.12 µg/mL (≈ 0.12 µM)	≦0.12 μg/mL	0.12 µg/mL (≈ 0.12 µM)	0.06 µg/mL (≈ 0.06 µM)
COC1C=COC2(C)Oc3c(C)c(O)c4c(O)c(c(C=NN5CCN(Cc6ccc(-c7ccccc7)s6)CC5)c(O)c4c3C2=O)NC(=O)C(C)=CC=CC(C)C(O)C(C)C(O)C(C)C(OC(C)=O)C1C (stereo not drawn) [Compound 20]	2 µg/mL (≈ 2.04 µM)	1 µg/mL (≈ 1.02 µM)	2 µg/mL (≈ 2.04 µM)	2 µg/mL (≈ 2.04 µM)
COC1C=COC2(C)Oc3c(C)c(O)c4c(O)c(c(C=NN5CCN(Cc6cc(-c7ccc(C(F)(F)F)cc7)no6)CC5)c(O)c4c3C2=O)NC(=O)C(C)=CC=CC(C)C(O)C(C)C(O)C(C)C(OC(C)=O)C1C (stereo not drawn) [Compound 7]	1 µg/mL (≈ 0.967 µM)	0.25 µg/mL (≈ 0.242 µM)	0.5 µg/mL (≈ 0.484 µM)	0.12 µg/mL (≈ 0.116 µM)
